From PMC9022229, “Induction of Paraptosis by Cyclometalated Iridium Complex-Peptide Hybrids and CGP37157 via a Mitochondrial Ca^2+ Overload Triggered by Membrane Fusion between Mitochondria and the Endoplasmic Reticulum” (Biochemistry, 2022)
Residues, ends and D or L forms follow the SMILES beside them. *: point of attachment. X1 = O=C(COc1ccc(-c2ccccn2)cc1)NCCCCCCCCN*

Experiments:
mitofusin 1 (MFN1) = experiment: Western blot analysis of MFN1 in Jurkat cells; format: cell-based; details: for MFN1 band intensity relative to absence of compound: Figure S8B, 12 h
Method: In a 1.5 mL Eppendorf tube, Jurkat cells (1.0 × 10^6 cells) were incubated in the presence of 4 ([…]), CGP37157 (100 μM for 0–24 h or 0–100 μM for 12 h), and celastrol (0–10 μM for 24 h or 1 μM for 0–24 h) at 37 °C under 5% CO2. After the cells had been washed twice with PBS, the proteins were extracted by using RIPA buffer (Nacalai Tesque) and quantified using a Pierce BCA Protein Assay Kit (Thermo Scientific). Proteins (7.5 μg/well) for MFNs and DRP1 and proteins (5.0 μg/well) for GAPDH were used for sodium dodecyl sulfate–polyacrylamide gel electrophoresis (SDS–PAGE) (7.5% for MFNs and DRP1 and 10% for GAPDH) (Bio-Rad). After SDS–PAGE, the proteins were transferred to a polyvinylidene fluoride membrane (Merck Millipore) by using a semi dry blotter (Bio-Rad). The membrane was blocked with Blocking One solution (Nacalai Tesque) for 30 min at room temperature. After being blocked, the membrane was washed three times with 1× TBST and treated with primary antibodies overnight (at a dilution of 1/1000 for MFNs and DRP1 or 1/2000 for GAPDH) in a signal enhancer HIKARI-solution A (Nacalai Tesque). The membrane was washed three times with 1× TBST and treated with the anti-mouse or anti-rabbit IgG HRP-conjugated secondary antibody (at a dilution of 1/4000 for MFNs and DRP1 or 1/10000 for GAPDH) in 1× TBST for 60 min at room temperature. The protein signal was spotted with a Chemi-Lumi One Ultra solution (Nacalai Tesque) using the ChemiDoc MP system (Bio-Rad). […]

Jurkat cells = experiment: Intracellular uptake in Jurkat cells by ICP-MS; format: cell-based; details: 5 μM, 37 °C, 5% CO2, ICP-MS, n = 3
Method: The time-dependent intracellular uptake of 4 into Jurkat cells was measured by ICP-MS (inductively coupled plasma-mass spectrometry). Jurkat cells were treated with 4 (5 μM) for 30 min, 1 h, 2 h, and 3 h at 37 °C under 5% CO2, washed three times with PBS, and lysed with nitric acid at 4 °C overnight. The lysates were diluted with H2O, and the samples were analyzed by ICP-MS.
In a 1.5 mL Eppendorf tube, Jurkat cells (1.0 × 10^6 cells) were treated with 4 (5 μM) for 0–3 h at 37 °C under 5% CO2 (n = 3). After the cells had been washed three times with PBS, HNO3 (60%, 0.5 mL) was added to the cells and the resulting solutions were incubated overnight at 4 °C. After centrifugation (15000 rpm, 4 °C, 10 min), the supernatant was transferred to a 15 mL tube, diluted with H2O (4.5 mL), and filtered. The number of iridium atoms was measured by ICP-MS (NexION300S, PerkinElmer).

O=C1CSC(c2ccccc2Cl)c2cc(Cl)ccc2N1 (stereo not shown) [CGP37157]
Expression level of MFN1 (Figure 11B) (mitofusin 1 (MFN1); CGP37157 100 μM, 1–6 h): weakly changed
MFN1 band intensity relative to absence of compound (mitofusin 1 (MFN1); CGP37157 10 µM): 1.1
MFN1 band intensity relative to absence of compound (mitofusin 1 (MFN1); CGP37157 20 µM): 1.1
MFN1 band intensity relative to absence of compound (mitofusin 1 (MFN1); CGP37157 50 µM): 0.92
MFN1 band intensity relative to absence of compound (mitofusin 1 (MFN1); CGP37157 80 µM): 0.80
MFN1 band intensity relative to absence of compound (mitofusin 1 (MFN1); CGP37157 100 µM): 0.63

NCCCC[C@H](NC(=O)[C@H](CCCCN)NC(=O)[C@@H](N)CCCCN)C(=O)NCC(=O)NCC(=O)NCCCCCCCCNC(=O)COc1ccc(-c2ccccn2)cc1 [compound 4] (H-KKKGG-X1)
Ir atom (intracellular amount) (Jurkat cells; 30 min): 0.64 ± 0.01 fmol/cell
Ir atom (intracellular amount) (Jurkat cells; 1 h): 1.3 ± 0.1 fmol/cell
Ir atom (intracellular amount) (Jurkat cells; 2 h): 1.2 ± 0.1 fmol/cell
Ir atom (intracellular amount) (Jurkat cells; 3 h): 1.5 ± 0.4 fmol/cell
